# Paper PMC7763008, “Antimicrobial, Anticancer and Multidrug-Resistant Reversing Activity of Novel Oxygen-, Sulfur- and Selenoflavones and Bioisosteric Analogues” (Pharmaceuticals, 2020)
# Read-outs that look alike come from different tables or passages of the source.
# How the values were obtained:
# [1] = tested on: Colo 205 human colonic adenocarcinoma cell line (doxorubicin-sensitive); assay: MTT cytotoxic activity assay, Colo 205; assay type: cell-based; conditions: COLO 205, read-out: Cytotoxic activity, A—Colo 205 IC50
# Excerpt: (§1) Three cell lines have been used in this work: (i), the doxorubicin-sensitive Colo 205 (ATCC-CCL-222) human colonic adenocarcinoma cell line; (ii) the multidrug resistant Colo 320/MDR-LRP expressing P-gp (MDR1)-LRP (ATCC-CCL-220.1) human colonic adenocarcinoma cell line; and the MRC-5 human embryonal lung fibroblast cell line (ATCC CCL-171). The three cell lines were purchased from LGC Promochem, Teddington, UK.
# (§2) Colo 205 (ATCC-CCL-222) and Colo 320/MDR-LRP expressing P-gp (MDR1)-LRP (ATCC-CCL-220.1 human colon adenocarcinoma cell lines. As previously described, the cells were cultured in RPMI 1640 medium supplemented with 10% heat-inactivated fetal bovine serum, 2 mM L-glutamine, 1 mM Na-pyruvate, and 100 mM Hepes. The cell lines were incubated at 37 °C, in a 5% CO2, 95% air atmosphere. The semi-adherent human colon cancer cells were detached with Trypsin-Versene (EDTA) solution for 5 min at 37 °C [20].
# (§3) The influence of synthetic flavonoid derivatives (compounds 1–6) on the doxorubicin-sensitive Colo 205, multidrug resistant Colo 320/MDR-LRP adenocarcinoma and MRC-5 cell lines was evaluated employing the MTT metabolic activity assay, using a procedure described in Supplementary Materials and in previous works, and applying the appropriate formulas to calculate the cell growth inhibition and the selectivity index (SI), as well as the criterion to determine whether a compound is strongly or moderately selective.
# (§4) Briefly, the serial dilutions in culture medium required for the MTT metabolic assay (ranging from 100 to 0.195 µM) were freshly prepared before the assay. The stock solutions (10 mM) of the tested compounds were prepared in pure DMSO and the final concentration of DMSO was adjusted to less than 1% threshold in the biological experiments. The concentration-dependent growth inhibition was evaluated in 96-well flat-bottomed microtiter plates. Doxorubicin (DOXO) was employed as a positive control whilst culture medium containing cells was used as a negative control.
# (§5) In the case of the colonic adenocarcinoma cells, two-fold serial dilutions of the flavone compounds were prepared in 100 μL of RPMI 1640, horizontally. Furthermore, the semi-adherent colonic adenocarcinoma cells were treated with Trypsin-Versene (EDTA) solution. Then, cells were adjusted to a density of 5 × 10^3/well for antiproliferative assay and 1 × 10^4/well for the estimation of cytotoxic activity in 100 µL of medium. The cells were added to each well except to the medium control wells. The culture plates were subsequently incubated at 37 °C for 24 h and 72 h, respectively; 20 μL of MTT solution (thiazolyl blue tetrazolium bromide, Sigma) were added to each well from MTT stock solution (5 mg /mL) after incubation. After 4 h of incubation at 37 °C, 100 μL of sodium dodecyl sulfate (SDS) solution (10% in 0.01 M HCl) was added to each well and all plates were incubated at 37 °C overnight. Finally, cell growth was determined by measuring the optical density (OD) at 540 nm (ref. 630 nm) with Multiscan EX ELISA reader (Thermo Labsystems, Cheshire, WA, USA).
# (§6) The inhibition of the cell growth was determined according to the formula mentioned elsewhere. Finally, the cell viability and IC50 values for every tested compound and doxorubicin were calculated using GraphPad Prism, version 5.03.
# [2] = tested on: Colo 320/MDR-LRP human colonic adenocarcinoma cell line (multidrug resistant); assay: MTT cytotoxic activity assay, Colo 320; assay type: cell-based
# Excerpt: as §1, §2, §3, §4, §5, §6
# [3] = MTT cytotoxic activity assay, MRC-5; assay type: cell-based; conditions: human
# Excerpt: as §1
# MRC-5 human embryonal lung fibroblast cell line (ATCC CCL-171). As previously described, the cells were cultured in Eagle’s Minimal Essential Medium (EMEM, containing 4.5 g/L of glucose) supplemented with a non-essential amino acid mixture, a selection of vitamins and 10% heat-inactivated fetal bovine serum. The cell lines were incubated at 37 °C, in a 5% CO2, 95% air atmosphere.
# as §3, §4
# Prior to the experiments, the adherent human embryonal lung fibroblasts (MRC-5) were cultured in flat-bottomed microtiter 96-well plates in an EMEM media supplemented with 10% heat-inactivated fetal bovine serum. Cells were seeded at a density of 10.000 cells per well for 24 h before the beginning of the experiment. The cells were cultured at 37 °C in the humidified cell incubator with the 5% of CO2 and 95% air environment. The medium was subsequently removed from the plates containing the cells, and the dilutions of tested compounds, previously made in a separate micro-titration plate, were added to the cells (at final volume equal to 200 μL).
# as §6
# [4] = tested on: Colo 205 human colonic adenocarcinoma cell line (doxorubicin-sensitive); assay: MTT antiproliferative activity assay, Colo 205; assay type: cell-based; conditions: 5 × 10^3 cells/well
# Excerpt: as §1, §2, §3, §4, §5, §6
# [5] = tested on: Colo 320/MDR-LRP human colonic adenocarcinoma cell line (multidrug resistant); assay: MTT antiproliferative activity assay, Colo 320; assay type: cell-based; conditions: 5 × 10^3 cells/well, read-out: Antiproliferative activity, B—Colo 320 IC50
# Excerpt: as §1, §2, §3, §4, §5, §6
# [6] = tested on: Staphylococcus carnosus; assay: Antibacterial growth assay, S. carnosus; assay type: cell-based; conditions: highest concentration of 200 µM
# Protocol: (§7) The antimicrobial activities of the compounds were determined according to the protocol described in the literature, employing a Universal Microplate Reader, EL800, Biotech Instruments, Inc. Highland Park, Winooski, VT, USA [23, 24, 25].
# (§8) In short words, compounds were dissolved in DMSO and later diluted in the adequate growth media to be evaluated at the final concentrations of 50, 100, 150, and 200 µM. Nutrient Luria Bertani (LB) broth, bacterial basic media, Sabouraud Dextrose (SD), and Yeast Peptone Dextrose (YPD) were exploited as media for Escherichia coli, Staphylococcus carnosus, Candida albicans, and Saccharomyces cerevisiae, respectively. In all cases, the final concentration of DMSO was 1% or less. A mixture of penicillin, streptomycin, and amphotericin B (4 U, 0.4 µg/mL and 10 µg/mL, respectively) was employed as positive control for S. carnosus and E. coli, while ketoconazole was utilized as the positive control for C. albicans and S. cerevisiae. The untreated culture in medium was employed as the negative control for each organism; 1% DMSO stock solution was used as a solvent control. All experiments were performed in triplicates and on three independent occasions (n = 9).
# [7] = tested on: Escherichia coli; assay: Antibacterial growth assay, E. coli; assay type: cell-based; conditions: highest concentration (200 µM; not restated for E. coli)
# Protocol: as §7, §8
# [8] = tested on: S. feltiae; assay: Nematicidal activity assay; assay type: in vivo; conditions: Steinernema feltiae; for viability at 200 µM: read-out: Viability of the nematodes; for IC50: in Figure 2
# Protocol: The soil nematodes S. feltiae were freshly purchased for experiment from Sautter and Stepper GmbH (Ammerbuch, Germany) and stored at 4 °C in the dark. The assay was performed according to the protocols described in the literature. Results were expressed as mean ± standard deviation (SD) and their statistical significance values were determined by one-way ANOVA followed by Tukey’s multiple comparison test. To consider data statistically significant, the p value should be ≤ 0.05.
# [9] = molecular target: P-gp (ABCB1) efflux pump in MDR Colo 320 colon adenocarcinoma cells (Homo sapiens, UniProt P08183); assay: Rhodamine 123 accumulation assay (MDR efflux pump inhibition, flow cytometry); conditions: for FAR (fluorescence activity ratio): MDR Colo 320 vs sensitive Colo 205; for FAR Quotient (%): FAR of compound / FAR of verapamil (20 μM) x 100; for Increase in efflux pump inhibitory activity of naphthyl vs corresponding phenyl derivative: naphthyl-substituted vs phenyl-substituted chalcogen flavone, 20 µM data
# P-gp (ABCB1) efflux pump in MDR Colo 320 colon adenocarcinoma cells, sequence (P08183 whole entry): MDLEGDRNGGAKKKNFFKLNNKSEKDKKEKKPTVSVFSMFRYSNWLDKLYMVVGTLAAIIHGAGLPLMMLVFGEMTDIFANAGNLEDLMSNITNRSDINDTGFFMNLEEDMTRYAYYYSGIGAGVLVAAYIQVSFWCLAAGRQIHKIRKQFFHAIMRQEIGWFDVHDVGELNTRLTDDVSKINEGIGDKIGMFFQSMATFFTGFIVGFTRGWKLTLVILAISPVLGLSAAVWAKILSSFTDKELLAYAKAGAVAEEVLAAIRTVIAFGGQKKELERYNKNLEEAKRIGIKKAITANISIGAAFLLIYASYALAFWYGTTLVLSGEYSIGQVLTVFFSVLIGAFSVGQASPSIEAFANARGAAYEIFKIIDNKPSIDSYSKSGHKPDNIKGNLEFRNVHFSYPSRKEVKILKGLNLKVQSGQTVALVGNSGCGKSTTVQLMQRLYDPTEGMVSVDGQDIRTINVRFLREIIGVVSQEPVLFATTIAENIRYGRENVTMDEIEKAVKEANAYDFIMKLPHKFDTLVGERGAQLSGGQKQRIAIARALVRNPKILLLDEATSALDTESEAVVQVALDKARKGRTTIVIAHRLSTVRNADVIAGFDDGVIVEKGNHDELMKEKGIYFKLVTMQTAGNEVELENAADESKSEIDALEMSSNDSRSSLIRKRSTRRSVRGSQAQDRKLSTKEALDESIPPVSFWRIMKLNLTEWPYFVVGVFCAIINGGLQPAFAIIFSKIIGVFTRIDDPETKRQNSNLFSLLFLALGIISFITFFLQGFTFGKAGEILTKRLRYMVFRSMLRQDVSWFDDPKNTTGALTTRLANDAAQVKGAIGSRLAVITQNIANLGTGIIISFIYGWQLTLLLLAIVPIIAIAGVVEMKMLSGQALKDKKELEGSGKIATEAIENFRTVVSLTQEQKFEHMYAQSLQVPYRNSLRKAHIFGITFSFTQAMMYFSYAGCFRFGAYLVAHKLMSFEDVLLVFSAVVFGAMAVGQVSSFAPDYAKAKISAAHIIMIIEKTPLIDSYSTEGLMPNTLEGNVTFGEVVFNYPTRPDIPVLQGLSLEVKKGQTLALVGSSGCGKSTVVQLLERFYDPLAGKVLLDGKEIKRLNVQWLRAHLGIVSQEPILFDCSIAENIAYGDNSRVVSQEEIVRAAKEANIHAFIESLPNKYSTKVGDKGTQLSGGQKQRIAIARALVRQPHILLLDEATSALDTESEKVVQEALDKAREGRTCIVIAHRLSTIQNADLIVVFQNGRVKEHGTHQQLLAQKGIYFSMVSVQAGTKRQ
# Protocol: The P-glycoprotein (P-gp) inhibitory properties of the tested flavone derivatives were evaluated in a rhodamine R123 accumulation assay in two different concentrations.
# This is a fluorescence-based detection assay which uses verapamil as a reference inhibitor of P-gp efflux pump. […] Compounds (1 μL and 10 μL from a stock solution of 1 mM) were added to the medium to achieve solutions with final concentrations of 2 μM and 20 μM respectively, followed by incubation of the sample for 10 min at room temperature. […] The fluorescence intensity of the cell population was measured with a Partec CyFlow flow cytometer (Partec, Munster, Germany). Verapamil (20 μM) was employed as a positive control. […] The fluorescence activity ratio (FAR) was calculated employing the following equation [20, 26]:FAR = (MDRtreated/MDRcontrol)/(sensitivetreated/ sensitivecontrol)(1)
# FAR Quotient % was calculated as follows:Quotient = (FARcompound/FARverapamil) × 100(2)
# [10] = COLO 320, read-out: Cytotoxic activity, B—Colo 320 IC50
# [11] = MTT, 1 × 10^4 cells/well, Colo 320, read-out: Cytotoxic activity, B—Colo 320 IC50
# [12] = MTT, MRC-5 normal lung fibroblasts, read-out: Cytotoxic activity, C—MRC-5 IC50
SMILES,IC50 [4],IC50 [5],FAR (fluorescence activity ratio) ([9]; 2 μM compound),FAR Quotient (%) ([9]; 2 μM compound),FAR (fluorescence activity ratio) ([9]; 20 μM),FAR Quotient (%) ([9]; 20 μM),Increase in efflux pump inhibitory activity of naphthyl vs corresponding phenyl derivative [9],P-gp inhibition relative to the reference verapamil ([9]; 20 µM),IC50 [1],"IC50 [2, 10]",IC50 [3],inhibition at 200 µM [6],inhibition at 200 µM [7],viability at 200 µM ([8]; highest concentration (200 µM)),IC50 [8],"IC50 [2, 11]","IC50 [3, 12]",viability at 200 µM [8],"IC50 ([3]; MRC-5 embryonal lung fibroblast cells, MTT, MRC-5 normal lung fibroblasts, read-out: Cytotoxic activity, C—MRC-5 IC50)"
"COc1ccc2cc(-c3[se]c4ccccc4c(=O)c3CC(S(=O)(=O)C(F)(F)F)S(=O)(=O)C(F)(F)F)ccc2c1 [Compound 6, bis(triflyl) selenoflavone]",> 100 µM,> 100 µM,1.14,34.92%,4.67,143.33%,3.23 fold,,,,,,,,80.62 ± 0.142 µM,> 100 µM,> 100 µM,26%,
"COc1cccc2c1C(=O)c1c(O)c3c(c(O)c1C2=O)C[C@@](O)(C(=O)CO)C[C@@H]3O[C@H]1C[C@H](N)[C@H](O)[C@H](C)O1 [DOXO, Doxorubicin, reference compound]",0.24 µM,0.14 µM,,,,,,,1.56 µM,,,,,,,6.45 µM,,,> 10 µM
COc1ccc(-c2[se]c3ccccc3c(=O)c2CC(S(=O)(=O)C(F)(F)F)S(=O)(=O)C(F)(F)F)cc1 [Compound 3],> 100 µM,> 100 µM,1.06,32.58%,1.45,44.33%,,,,,,57%,49%,,41.94 ± 0.286 µM,> 100 µM,> 100 µM,29%,

# Continued, in another order:
IC50 [4],IC50 [5],FAR (fluorescence activity ratio) ([9]; 2 μM compound),FAR Quotient (%) ([9]; 2 μM compound),FAR (fluorescence activity ratio) ([9]; 20 μM),FAR Quotient (%) ([9]; 20 μM),Increase in efflux pump inhibitory activity of naphthyl vs corresponding phenyl derivative [9],P-gp inhibition relative to the reference verapamil ([9]; 20 µM),SMILES,IC50 [1],"IC50 [2, 10]",IC50 [3],inhibition at 200 µM [6],inhibition at 200 µM [7],viability at 200 µM ([8]; highest concentration (200 µM)),IC50 [8],"IC50 [2, 11]","IC50 [3, 12]",viability at 200 µM [8],"IC50 ([3]; MRC-5 embryonal lung fibroblast cells, MTT, MRC-5 normal lung fibroblasts, read-out: Cytotoxic activity, C—MRC-5 IC50)"
> 100 µM,> 100 µM,0.97,29.67%,1.89,57.83%,,,COc1ccc(-c2sc3ccccc3c(=O)c2CC(S(=O)(=O)C(F)(F)F)S(=O)(=O)C(F)(F)F)cc1 [Compound 2],> 100 µM,> 100 µM,> 100 µM,47%,42%,24%,54.98 ± 0.143 µM,,,,
> 100 µM,> 100 µM,1.14,34.92%,1.53,46.92%,,,COc1ccc(-c2oc3ccccc3c(=O)c2CC(S(=O)(=O)C(F)(F)F)S(=O)(=O)C(F)(F)F)cc1 [Compound 1],> 100 µM,> 100 µM,> 100 µM,,30%,30%,23 ± 0.297 µM,,,,
> 100 µM,> 100 µM,1.48,45.42%,4.81,147.50%,3.14 fold,,COc1ccc2cc(-c3oc4ccccc4c(=O)c3CC(S(=O)(=O)C(F)(F)F)S(=O)(=O)C(F)(F)F)ccc2c1 [Compound 4],> 100 µM,> 100 µM,> 100 µM,37%,45%,,,,,,
> 100 µM,> 100 µM,1.95,59.92%,8.61,264.17%,4.57 fold,2.64 fold,COc1ccc2cc(-c3sc4ccccc4c(=O)c3CC(S(=O)(=O)C(F)(F)F)S(=O)(=O)C(F)(F)F)ccc2c1 [Compound 5],> 100 µM,> 100 µM,> 100 µM,47%,39%,,,,,,
